The numbers were not newly measured in paper PMC8228323, “Biodegradation of L-Valine Alkyl Ester Ibuprofenates by Bacterial Cultures” (Materials, 2021), which cites them from elsewhere.

The structures appear in SMILES notation.

For data set [1], the system named is microorganisms. The arrangement: method as in PMID 22644530, PMID 23262323, doi:10.4314/jasem.v25i3.5, PMID 33724810, PMID 33601200. The note with it: at the applied concentration.
Details of data set [2]: method as in PMID 20111784. The settings on record: CO2 released, 0 to 28 days.

On to `CC(C)Cc1ccc(C(C)C(=O)O)cc1` (centres unmarked) [IBU, ibuprofen], for which the “Inhibition of microbial activity” value in data set [1] was “did not inhibit the microbial activity”.

On to `CCCCCCCCCCCCOS(=O)(=O)[O-].[Na+]` [SDS, sodium dodecyl sulfate], for which the Degree of biodegradability result in data set [2] is reported as “about 95%”.

Consider `CCCCCCCCOS(=O)(=O)[O-].CCCCOCCOC(=O)Cn1cc[n+](C)c1` [[BuOCH2CH2OCOCH2min][OctOSO3]], for which the Degree of biodegradability result in data set [2] is given as “more than 60%”.

As for `CCCCCCCCOS(=O)(=O)[O-].CCOCCOC(=O)Cn1cc[n+](C)c1` [[EtOCH2CH2OCOCH2min][OctOSO3]], in data set [2], the Degree of biodegradability is given as 59%.

As for `CCCCCCCCOS(=O)(=O)[O-].CCCOCCOC(=O)Cn1cc[n+](C)c1` [[PrOCH2CH2OCOCH2min][OctOSO3]], in data set [2], the Degree of biodegradability result was “more than 60%”.
